Reference: US9504729B2, “Antiangiogenic small molecules and methods of use” (The United States of America, as represented by the …, priority 2009, dated 2016)

System: angiogenesis genes in dermal microvascular endothelial cells
Assay: Real time RT-PCR of angiogenesis gene expression during endothelial tube formation
Format: cell-based
Settings: 1 μM SM, 24 hours
Description: For gene expression studies, three independent experiments were run for each SM tested. 90.000 cells/well (6 wells/treatment) of dermal microvascular endothelial cells (Lonza, Walkersville, Md.) were seeded on polymerized GELTREX™ gel matrix (Invitrogen, Carlsbad, Calif.) in 24 well plates. Wells were immediately treated with the same volume of 1 μM SM or PBS. After 24 hours incubation at 37° C. and 5% CO2, cells were extracted using Cell Recovery Solution (BD Biosciences, San Jose, Calif., Cat. #354253). Total RNA was extracted with the RNeasy Mini Kit (Qiagen, Valencia, Calif., Cat. #74104), and retrotranscribed using […]® First-Strand reverse transcriptase (Invitrogen, Carlsbad, Calif., Cat. #11904-018). The real time PCR reactions were performed in an Opticon 2 cycler (MJ Research, Waltham, Mass.). Amplification was performed in a final volume of 25 μl, containing 2 μl cDNA (1:10 dilution from the reversed transcribed reaction) and 2 μl of primer mixture (10 μM each of forward and reverse primers). Samples were amplified as follows: after initial denaturation at 95 C for 2 minutes, reactions were run for 46 cycles at 95° C. for 30 seconds, 60° C. for 30 seconds, and 72° C. for 45 seconds. Fluorescence was measured in every cycle and a melting curve was run after the PCR by increasing temperature from 50 to 96° C. (in 0.5° C. increments). A defined single peak was obtained for all amplicons, thus confirming the specificity of the amplification.
The genes that were monitored were selected based on their relevance to the angiogenesis process. All experiments were done in triplicate. The results are shown in the volcano plots of FIG. 17. Log 2 fold-change is presented in the X-axis and log 10 P value in the Y-axis.

## COC(=O)C1CC(=O)C(C(=O)OC)CC1=O (stereo not drawn) [Compound 122567]
  Log2 fold-change of gene expression: Kifc1: 1.1
  Log2 fold-change of gene expression: LAMAS5: −1.1
  Log2 fold-change of gene expression: LECT1: 0.3
  Log2 fold-change of gene expression: LEP: 0.2
  Log2 fold-change of gene expression: Lasts2: 4.8
  Log2 fold-change of gene expression: Lrrk1: −0.5
  Log2 fold-change of gene expression: MDK: −0.9
  Log2 fold-change of gene expression: MMP2: 0.3
  Log2 fold-change of gene expression: MMP9: 0.9
  Log2 fold-change of gene expression: MMP11: 1.3
  Log2 fold-change of gene expression: MRC2: 0.7
  Log2 fold-change of gene expression: Mmm2: −3.5
  Log2 fold-change of gene expression: Myo1b: −2.9
  Log2 fold-change of gene expression: NID1: −6.3
  Log2 fold-change of gene expression: NM023516: 0.2
  Log2 fold-change of gene expression: NRP1: −3.0
  Log2 fold-change of gene expression: NRP2: −4.3
  Log2 fold-change of gene expression: Notch4: −1.1
  Log2 fold-change of gene expression: Npr3: 1.5
  Log2 fold-change of gene expression: PALD: −0.5
  Log2 fold-change of gene expression: PDCD2: −0.4
  Log2 fold-change of gene expression: PDGFA: −1.7
  Log2 fold-change of gene expression: PECAM1: −2.7
  Log2 fold-change of gene expression: PGF: −4.9
  Log2 fold-change of gene expression: PLAU: −0.1
  Log2 fold-change of gene expression: PLG: −1.5
  Log2 fold-change of gene expression: PNMT: 1.1
  Log2 fold-change of gene expression: PROK2: 1.3
  Log2 fold-change of gene expression: PTGS1: 0.8
  Log2 fold-change of gene expression: PTPRCAP: 0.0
  Log2 fold-change of gene expression: Pltp: 1.5
  Log2 fold-change of gene expression: Ptprb: 0.5
  Log2 fold-change of gene expression: Ptprm: −0.4
  Log2 fold-change of gene expression: RAMP2: −5.8
  Log2 fold-change of gene expression: RASD2: 0.5
  Log2 fold-change of gene expression: Rasip1: −1.2
  Log2 fold-change of gene expression: S1PR1: −0.7
  Log2 fold-change of gene expression: SERPINF1: 0.2
  Log2 fold-change of gene expression: SPHK1: 0.9
  Log2 fold-change of gene expression: STAB1: −1.7
  Log2 fold-change of gene expression: Sdc4: 0.4
  Log2 fold-change of gene expression: Sdpr: 1.6
  Log2 fold-change of gene expression: Slc43a3: 1.8
  Log2 fold-change of gene expression: Slco2a1: −0.6
  Log2 fold-change of gene expression: TEK: 0.3
  Log2 fold-change of gene expression: TGFA: 2.0
  Log2 fold-change of gene expression: TGFB1: −1.2
  Log2 fold-change of gene expression: TGFB2: 1.2
  Log2 fold-change of gene expression: TGFBR1: 1.2
  Log2 fold-change of gene expression: THBS1: 0.1
  Log2 fold-change of gene expression: THBS2: 1.2
  Log2 fold-change of gene expression: THY1: −9.4
  Log2 fold-change of gene expression: TIMP1: −1.4
  Log2 fold-change of gene expression: TIMP2: −1.4
  Log2 fold-change of gene expression: TIMP3: −4.3
  Log2 fold-change of gene expression: TNF: −0.2
  Log2 fold-change of gene expression: TNS1: 0.0
  Log2 fold-change of gene expression: TNS3: 2.0
  Log2 fold-change of gene expression: TRA2B: −1.6
  Log2 fold-change of gene expression: TYMP: −0.3
  Log2 fold-change of gene expression: VEGFA: 4.9
  Log2 fold-change of gene expression: VEGFC: 1.8
  Log2 fold-change of gene expression: VGLL4: −3.5
  Log2 fold-change of gene expression: Vwf: −3.5
  Log2 fold-change of gene expression: copa: 0.1
  Log2 fold-change of gene expression: itbp4: −1.9
  Log2 fold-change of gene expression: ralb: 0.3
  Log2 fold-change of gene expression: stard9: 0.5
1st listing (r49)
  Log2 fold-change of gene expression: B2M: 0.1
1st listing (r50)
  Log2 fold-change of gene expression: HPRT1: 0.0
1st listing (r51)
  Log2 fold-change of gene expression: RPL13A: 0.7
1st listing (r52)
  Log2 fold-change of gene expression: GADPH: −0.7
1st listing (r53)
  Log2 fold-change of gene expression: ACTB: −1.0
1st listing (r74)
  Log2 fold-change of gene expression: PLXDC1: 0.7
1st listing (r91)
  Log2 fold-change of gene expression: TNFAIP2: −1.0
1st listing (r95)
  Log2 fold-change of gene expression: Robo4: 0.0
1st listing (r134)
  Log2 fold-change of gene expression: 151516: 1.1
2nd listing (r92)
  Log2 fold-change of gene expression: TNFAIP2: −1.1
2nd listing (r97)
  Log2 fold-change of gene expression: B2M: −0.2
2nd listing (r98)
  Log2 fold-change of gene expression: HPRT1: 0.0
2nd listing (r99)
  Log2 fold-change of gene expression: RPL13A: 1.2
2nd listing (r100)
  Log2 fold-change of gene expression: GADPH: −0.8
2nd listing (r101)
  Log2 fold-change of gene expression: ACTB: −1.0
2nd listing (r104)
  Log2 fold-change of gene expression: PLXDC1: −1.7
2nd listing (r139)
  Log2 fold-change of gene expression: 151516: 1.3
2nd listing (r188)
  Log2 fold-change of gene expression: Robo4: 1.2
3rd listing (r145)
  Log2 fold-change of gene expression: B2M: −0.2
3rd listing (r146)
  Log2 fold-change of gene expression: HPRT1: −0.6
3rd listing (r147)
  Log2 fold-change of gene expression: RPL13A: 0.9
3rd listing (r148)
  Log2 fold-change of gene expression: GADPH: −0.7
3rd listing (r149)
  Log2 fold-change of gene expression: ACTB: −0.5
4th listing (r193)
  Log2 fold-change of gene expression: B2M: 0.3
4th listing (r194)
  Log2 fold-change of gene expression: HPRT1: −0.2
4th listing (r195)
  Log2 fold-change of gene expression: RPL13A: 1.3
4th listing (r196)
  Log2 fold-change of gene expression: GADPH: −2.0
4th listing (r197)
  Log2 fold-change of gene expression: ACTB: −0.1
